Values quoted from earlier work in US20020002154A1, “METHOD AND COMPOSITION FOR TREATMENT OF INFLAMMATORY CONDITIONS” (priority 1998, published 2002).

Tested on: acute phase of Crohn's Disease (CD)

Question: For `CCCC1O[C@@H]2C[C@H]3[C@@H]4CCC5=CC(=O)C=C[C@]5(C)[C@H]4[C@@H](O)C[C@]3(C)[C@]2(C(=O)CO)O1` (stereo partly shown) [budesonide], which “side-effects compared to prednisone” value is on record?
Answer: The value was “fewer side-effects”.
